Test results as given in patent US20220096487A1 (priority 2019, published 2022).
Marks after values point to notes of the source that are not given here.

How the values were obtained:
OCT1 = OCT1 (Homo sapiens, UniProt O15245); experiment: In vitro inhibition of OCT1; format: in vitro ADME; details: did not inhibit
[1] = Hypersensitivity reactions in Phase 3 clinical trials of dolutegravir; format: in vivo, human; details: subjects receiving dolutegravir in Phase 3 clinical trials
Source text: Discontinue the combination immediately if signs or symptoms of hypersensitivity reactions develop (including, but not limited to, severe rash or rash accompanied by fever, general malaise, fatigue, muscle or joint aches, blisters or peeling of the skin, oral blisters or lesions, conjunctivitis, facial edema, hepatitis, eosinophilia, angioedema, difficulty breathing). Clinical status, including liver aminotransferases, should be monitored and appropriate therapy initiated.

[2] = Carcinogenicity studies in rats; details: two-year study, doses up to 50 mg/kg, highest dose tested
[3] = Single-dose mass balance study of [14C] dolutegravir; format: in vivo, human
[4] = system: 13 clinically diverse clade B isolates; experiment: Viral integrase susceptibility assay using integrase coding region from clinical isolates; format: cell-based, HIV-1; details: Human immunodeficiency virus 1; 13 clade B isolates
OAT3 = OAT3 (Homo sapiens, UniProt Q8TCC7); experiment: In vitro inhibition of OAT3; format: in vitro ADME
OAT1 and OAT3 = experiment: In vivo effect on OAT1 and OAT3 substrates
[5] = Population pharmacokinetic analyses; format: in vivo, human
[6] = In vivo rodent micronucleus assay
CYP1A2 [7] = experiment: In vitro induction of CYP1A2; format: in vitro ADME
[8] = Thorough QT trial in healthy subjects; format: in vivo, human
[9] = cited from earlier work
MRP4 = MRP4 (Homo sapiens, UniProt O15439); experiment: In vitro inhibition of MRP4; format: in vitro ADME; details: did not inhibit
[10] = target: bile salt export pump (BSEP) (Homo sapiens, UniProt O95342); experiment: In vitro inhibition of BSEP; format: in vitro ADME; details: did not inhibit
CYP2C9 = CYP2C9 (Homo sapiens, UniProt P11712); experiment: In vitro inhibition of CYP2C9; format: in vitro ADME; details: did not inhibit
Chain of CYP2C9 (P11712 whole entry): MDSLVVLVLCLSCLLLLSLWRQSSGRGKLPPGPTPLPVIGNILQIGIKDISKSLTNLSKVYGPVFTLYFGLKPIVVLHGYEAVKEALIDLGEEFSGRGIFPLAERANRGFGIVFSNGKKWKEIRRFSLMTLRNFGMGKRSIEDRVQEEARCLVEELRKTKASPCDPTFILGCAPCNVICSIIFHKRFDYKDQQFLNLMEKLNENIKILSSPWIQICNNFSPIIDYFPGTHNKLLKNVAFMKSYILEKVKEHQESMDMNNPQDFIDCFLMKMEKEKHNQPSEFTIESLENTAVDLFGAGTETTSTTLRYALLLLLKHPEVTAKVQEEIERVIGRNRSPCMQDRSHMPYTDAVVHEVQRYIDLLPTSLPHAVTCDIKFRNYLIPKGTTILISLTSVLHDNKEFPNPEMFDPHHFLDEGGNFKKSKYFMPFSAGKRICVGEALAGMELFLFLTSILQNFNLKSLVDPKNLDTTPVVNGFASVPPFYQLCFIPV

OATP1B3 [11] = target: T1, OATP1B3 (Homo sapiens, UniProt Q9NPD5); experiment: In vitro substrate assessment, OATP1B3; format: in vitro ADME
T1 sequence (Q9NPD5 whole entry): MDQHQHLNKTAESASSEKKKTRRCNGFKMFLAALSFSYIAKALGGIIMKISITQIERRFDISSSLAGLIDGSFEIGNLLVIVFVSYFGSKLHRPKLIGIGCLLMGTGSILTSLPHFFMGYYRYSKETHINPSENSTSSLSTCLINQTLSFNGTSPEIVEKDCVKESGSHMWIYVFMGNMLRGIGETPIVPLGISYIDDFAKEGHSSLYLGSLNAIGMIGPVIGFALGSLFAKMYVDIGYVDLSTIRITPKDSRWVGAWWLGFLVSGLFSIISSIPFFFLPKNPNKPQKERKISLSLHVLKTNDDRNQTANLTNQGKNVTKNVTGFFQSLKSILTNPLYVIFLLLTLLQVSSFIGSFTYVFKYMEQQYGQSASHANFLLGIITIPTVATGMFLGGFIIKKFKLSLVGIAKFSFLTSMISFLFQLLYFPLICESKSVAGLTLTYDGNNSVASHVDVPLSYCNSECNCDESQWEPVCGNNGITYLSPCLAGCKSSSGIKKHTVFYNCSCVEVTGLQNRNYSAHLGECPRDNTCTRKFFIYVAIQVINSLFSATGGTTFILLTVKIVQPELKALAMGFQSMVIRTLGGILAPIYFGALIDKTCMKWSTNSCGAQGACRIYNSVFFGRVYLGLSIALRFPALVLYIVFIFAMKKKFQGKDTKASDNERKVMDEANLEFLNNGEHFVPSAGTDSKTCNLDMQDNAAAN

CYP2D6 = CYP2D6 (Homo sapiens, UniProt P10635); experiment: In vitro inhibition of CYP2D6; format: in vitro ADME; details: did not inhibit
Chain of CYP2D6 (P10635 whole entry): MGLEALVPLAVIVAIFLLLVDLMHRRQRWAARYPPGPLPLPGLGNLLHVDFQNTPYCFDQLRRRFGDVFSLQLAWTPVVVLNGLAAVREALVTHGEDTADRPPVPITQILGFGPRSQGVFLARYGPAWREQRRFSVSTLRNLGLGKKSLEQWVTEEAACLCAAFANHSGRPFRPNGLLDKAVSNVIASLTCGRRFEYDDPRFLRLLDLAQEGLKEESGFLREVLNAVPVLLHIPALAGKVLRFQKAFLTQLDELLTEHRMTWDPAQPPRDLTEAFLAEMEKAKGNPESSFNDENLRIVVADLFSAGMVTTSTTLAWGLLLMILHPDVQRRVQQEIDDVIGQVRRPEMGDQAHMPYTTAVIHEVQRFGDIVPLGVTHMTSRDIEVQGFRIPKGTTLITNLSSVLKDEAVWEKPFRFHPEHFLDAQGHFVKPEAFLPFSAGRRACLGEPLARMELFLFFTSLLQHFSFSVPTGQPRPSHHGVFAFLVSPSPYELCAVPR

[12] = target: organic anion transporter (OAT)1 (Homo sapiens, UniProt Q4U2R8); experiment: In vitro inhibition of OAT1; format: in vitro ADME
UGT1A1 = UGT1A1 (Homo sapiens, UniProt P22309); experiment: In vitro inhibition of UGT1A1; format: in vitro ADME; details: did not inhibit
CYP2C8 = CYP2C8 (Homo sapiens, UniProt P10632); experiment: In vitro inhibition of CYP2C8; format: in vitro ADME; details: did not inhibit
Chain of CYP2C8 (P10632 whole entry): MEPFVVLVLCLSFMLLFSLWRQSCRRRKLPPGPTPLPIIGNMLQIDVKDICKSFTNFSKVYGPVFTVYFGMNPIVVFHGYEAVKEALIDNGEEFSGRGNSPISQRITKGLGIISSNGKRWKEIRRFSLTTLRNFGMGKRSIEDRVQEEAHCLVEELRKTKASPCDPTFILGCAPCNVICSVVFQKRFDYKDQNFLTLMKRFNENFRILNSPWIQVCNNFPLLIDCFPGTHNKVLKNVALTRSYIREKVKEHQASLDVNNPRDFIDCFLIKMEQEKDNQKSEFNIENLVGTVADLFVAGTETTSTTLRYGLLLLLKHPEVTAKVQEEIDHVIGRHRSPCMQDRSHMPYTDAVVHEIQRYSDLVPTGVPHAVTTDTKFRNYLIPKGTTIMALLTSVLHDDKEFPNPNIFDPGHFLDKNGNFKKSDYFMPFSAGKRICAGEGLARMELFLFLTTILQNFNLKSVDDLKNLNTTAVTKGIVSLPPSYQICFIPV

UGT2B7 = UGT2B7 (Homo sapiens, UniProt P16662); experiment: In vitro inhibition of UGT2B7; format: in vitro ADME; details: did not inhibit
CYP2A6 = CYP2A6 (Homo sapiens, UniProt P11509); experiment: In vitro inhibition of CYP2A6; format: in vitro ADME; details: did not inhibit
Chain of CYP2A6 (P11509 whole entry): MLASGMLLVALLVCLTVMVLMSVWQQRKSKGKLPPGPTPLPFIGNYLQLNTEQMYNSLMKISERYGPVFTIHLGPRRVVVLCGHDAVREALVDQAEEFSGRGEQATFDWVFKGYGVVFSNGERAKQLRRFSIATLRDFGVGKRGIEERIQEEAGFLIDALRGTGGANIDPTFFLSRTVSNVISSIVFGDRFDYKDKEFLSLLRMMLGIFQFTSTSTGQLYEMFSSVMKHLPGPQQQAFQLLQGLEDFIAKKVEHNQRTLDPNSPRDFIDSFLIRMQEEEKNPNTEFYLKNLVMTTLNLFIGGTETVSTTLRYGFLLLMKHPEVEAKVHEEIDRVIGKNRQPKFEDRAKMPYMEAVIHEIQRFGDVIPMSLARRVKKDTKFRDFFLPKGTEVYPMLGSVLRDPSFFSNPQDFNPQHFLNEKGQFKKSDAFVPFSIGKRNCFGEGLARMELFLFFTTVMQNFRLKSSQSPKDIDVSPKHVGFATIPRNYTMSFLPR

[13] = Carcinogenicity studies in mice; details: two-year study, doses up to 500 mg/kg, highest dose tested
[14] = Plasma protein binding in vitro; format: in vitro ADME; details: human, human plasma proteins, read-out: % Bound to human plasma proteins (converted)
P-gp = P-gp (Homo sapiens, UniProt P08183); experiment: In vitro substrate assessment, P-gp; format: in vitro ADME
Chain of P-gp (P08183 whole entry): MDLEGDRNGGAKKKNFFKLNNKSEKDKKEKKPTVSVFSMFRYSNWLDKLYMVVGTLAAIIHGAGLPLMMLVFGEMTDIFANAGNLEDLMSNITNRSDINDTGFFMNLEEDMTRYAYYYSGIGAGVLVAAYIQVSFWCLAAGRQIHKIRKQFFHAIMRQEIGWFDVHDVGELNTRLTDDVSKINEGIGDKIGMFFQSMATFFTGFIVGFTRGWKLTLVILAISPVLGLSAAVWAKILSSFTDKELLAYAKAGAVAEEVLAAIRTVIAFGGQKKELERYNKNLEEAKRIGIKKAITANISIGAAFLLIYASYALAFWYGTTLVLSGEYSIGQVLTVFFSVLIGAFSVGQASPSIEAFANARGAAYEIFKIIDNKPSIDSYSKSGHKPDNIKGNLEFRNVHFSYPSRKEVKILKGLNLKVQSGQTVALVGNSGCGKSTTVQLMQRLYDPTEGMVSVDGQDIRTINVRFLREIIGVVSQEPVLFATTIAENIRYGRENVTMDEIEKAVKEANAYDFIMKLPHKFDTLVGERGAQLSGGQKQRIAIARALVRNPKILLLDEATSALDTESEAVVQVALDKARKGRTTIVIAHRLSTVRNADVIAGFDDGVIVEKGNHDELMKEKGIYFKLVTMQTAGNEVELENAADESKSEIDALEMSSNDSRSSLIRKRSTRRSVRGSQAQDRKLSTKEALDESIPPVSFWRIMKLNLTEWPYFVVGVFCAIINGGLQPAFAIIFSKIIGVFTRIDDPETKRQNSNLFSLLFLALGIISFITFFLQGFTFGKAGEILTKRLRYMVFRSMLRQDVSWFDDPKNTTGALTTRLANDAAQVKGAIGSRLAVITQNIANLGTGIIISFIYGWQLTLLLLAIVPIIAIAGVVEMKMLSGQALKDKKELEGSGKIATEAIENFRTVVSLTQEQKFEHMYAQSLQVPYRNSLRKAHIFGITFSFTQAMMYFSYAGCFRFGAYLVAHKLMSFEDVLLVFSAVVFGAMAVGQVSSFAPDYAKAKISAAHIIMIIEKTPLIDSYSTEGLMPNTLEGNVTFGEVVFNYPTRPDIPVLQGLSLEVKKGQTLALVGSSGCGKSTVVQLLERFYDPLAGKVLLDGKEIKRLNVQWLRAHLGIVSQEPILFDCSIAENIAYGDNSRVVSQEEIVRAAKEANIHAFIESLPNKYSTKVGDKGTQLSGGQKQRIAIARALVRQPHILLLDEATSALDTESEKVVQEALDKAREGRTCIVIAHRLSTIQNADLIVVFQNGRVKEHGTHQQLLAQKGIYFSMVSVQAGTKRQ

[15] = Bacterial reverse mutation assay
CYP2B6 = experiment: In vitro induction of CYP2B6; format: in vitro ADME
[16] = target: multidrug resistance protein (MRP)2 (Homo sapiens, UniProt Q92887); experiment: In vitro inhibition of MRP2; format: in vitro ADME; details: did not inhibit
UGT1A9 = UGT1A9 (Homo sapiens, UniProt O60656); experiment: In vitro substrate assessment, UGT1A9; format: in vitro ADME
Chain of UGT1A9 (O60656 26-530): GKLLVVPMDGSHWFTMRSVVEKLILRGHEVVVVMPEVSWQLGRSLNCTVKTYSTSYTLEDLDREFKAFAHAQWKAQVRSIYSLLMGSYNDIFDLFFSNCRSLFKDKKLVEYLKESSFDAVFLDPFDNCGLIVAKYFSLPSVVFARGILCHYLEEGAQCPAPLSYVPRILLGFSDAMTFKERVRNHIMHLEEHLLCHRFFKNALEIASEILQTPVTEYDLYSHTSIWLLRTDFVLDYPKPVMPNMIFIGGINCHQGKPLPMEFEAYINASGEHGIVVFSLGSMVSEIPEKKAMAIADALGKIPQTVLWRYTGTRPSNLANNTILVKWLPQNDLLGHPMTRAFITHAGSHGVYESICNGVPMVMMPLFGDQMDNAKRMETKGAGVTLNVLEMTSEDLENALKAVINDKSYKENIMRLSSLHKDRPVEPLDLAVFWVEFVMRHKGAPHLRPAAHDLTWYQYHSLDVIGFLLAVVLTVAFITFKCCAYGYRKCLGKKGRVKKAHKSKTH

HIV-2 clinical isolates = experiment: Dolutegravir PBMC assays against HIV-2 clinical isolates; format: cell-based; details: Human immunodeficiency virus 2, three HIV-2 clinical isolates
CYP1A2 [17] = target: CYP1A2 (Homo sapiens, UniProt P05177); experiment: In vitro inhibition of CYP1A2; format: in vitro ADME; details: did not inhibit
Chain of CYP1A2 (Homo sapiens, UniProt P05177) (P05177 whole entry): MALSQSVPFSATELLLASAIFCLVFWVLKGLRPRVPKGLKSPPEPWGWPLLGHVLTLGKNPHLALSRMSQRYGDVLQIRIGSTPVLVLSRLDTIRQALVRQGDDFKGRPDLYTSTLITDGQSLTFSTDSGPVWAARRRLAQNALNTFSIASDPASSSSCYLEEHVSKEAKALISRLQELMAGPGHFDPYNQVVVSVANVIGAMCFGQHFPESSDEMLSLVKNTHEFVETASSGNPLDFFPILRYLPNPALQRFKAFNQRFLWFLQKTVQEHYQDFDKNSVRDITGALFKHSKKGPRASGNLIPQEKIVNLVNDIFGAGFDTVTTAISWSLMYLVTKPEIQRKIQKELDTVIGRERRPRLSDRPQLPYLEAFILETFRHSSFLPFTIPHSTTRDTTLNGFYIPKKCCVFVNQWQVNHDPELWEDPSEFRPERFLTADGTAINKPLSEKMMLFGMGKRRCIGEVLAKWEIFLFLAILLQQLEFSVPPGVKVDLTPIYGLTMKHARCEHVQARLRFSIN

[18] = Dolutegravir embryo-fetal development study in pregnant rabbits; format: in vivo, rabbit; details: oral up to 1,000 mg/kg daily, gestation Days 6 to 18
OATP1B3 [19] = target: T1, OATP1B3; experiment: In vitro inhibition of OATP1B3; format: in vitro ADME; details: did not inhibit
[20] = target: organic anion transporter polypeptide (OATP)1B1 (Homo sapiens, UniProt Q9Y6L6); experiment: In vitro inhibition of OATP1B1; format: in vitro ADME; details: did not inhibit
CYP3A = experiment: In vitro inhibition of CYP3A; format: in vitro ADME; details: human, did not inhibit
[21] = Excretion into milk of lactating rats; format: in vivo; details: female, rat, milk / maternal plasma; single oral dose of 50 mg/kg on lactation Day 10; 8 hours postdose; read-out: Milk concentration relative to maternal plasma concentration

C[C@@H]1CCO[C@H]2Cn3cc(C(=O)NCc4ccc(F)cc4F)c(=O)c(O)c3C(=O)N12 [Dolutegravir, dolutegravir]
IC50 (OCT1): > 50 µM | Hypersensitivity reactions, % of subjects [1]: < 1% | AUC exposure multiple of human (50 mg once daily) with no increases in drug-related neoplasms [2]: 17 times | % of dose excreted as total 14C in feces ([3]; single dose): 64% | % of dose excreted as total 14C in urine ([3]; single dose): 31^b % | % of dose excreted as unchanged drug in feces ([3]; single dose): 53% | % of dose excreted as unchanged drug in the urine ([3]; single-dose mass balance study of [14C] dolutegravir): <1^b % | EC50 [4]: 0.00052 µM | IC50 (OAT3): 1.97 µM | Effect on plasma concentrations of tenofovir or para-amino hippurate, substrates of OAT1 and OAT3 (OAT1 and OAT3): did not alter | Effect of age on pharmacokinetics ([5]; in vivo): no clinically relevant effect | Effect of gender and race on pharmacokinetics ([5]; studies with the individual components): no clinically relevant effect | Genotoxicity, in vivo rodent micronucleus assay [6]: not genotoxic | Induction of CYP1A2 (CYP1A2 [7]): did not induce | Maximum mean QTc change (QTcF) ([8]; dolutegravir 250-mg suspension single dose, baseline and placebo adjusted): 2.4 ms | QTc interval prolongation ([8]; over 24 hours postdose): did not prolong | Neural tube defects, % of births ([9]; mothers exposed to dolutegravir-containing regimens at the time of conception, 4 of 426 births): 0.94% | Neural tube defect in infants ([9]; women who started dolutegravir during pregnancy (n=2,812)): No infant | IC50 (MRP4): > 50 µM | IC50 [10]: > 50 µM | IC50 (CYP2C9): > 50 µM | Substrate of OATP1B3 (OATP1B3 [11]): not a substrate | IC50 (CYP2D6): > 50 µM | IC50 [12]: 2.12 µM | IC50 (UGT1A1): > 50 µM | IC50 (CYP2C8): > 50 µM | IC50 (UGT2B7): > 50 µM | IC50 (CYP2A6): > 50 µM | AUC exposure multiple of human (50 mg once daily) with no significant increases in drug-related neoplasms [13]: approximately 20 fold | fraction unbound [14]: ~0.01 | Substrate of P-gp (P-gp): substrate | Genotoxicity, bacterial reverse mutation assay [15]: not genotoxic | Induction of CYP2B6 (CYP2B6): did not induce | IC50 [16]: > 50 µM | Substrate of UGT1A9 (UGT1A9): substrate | EC50 (HIV-2 clinical isolates): 0.09 to 0.61 nM | IC50 (CYP1A2 [17]): > 50 µM | Effects on embryo-fetal development [18]: No adverse effects | IC50 (OATP1B3 [19]): > 50 µM | IC50 [20]: > 50 µM | IC50 (CYP3A): > 50 µM | Kp at 8 h [21]: ≤ 1.3
